Test results reported in publication PMC11183015, “In vivo stable ^211At-labeled prostate-specific membrane antigen-targeted tracer using a neopentyl glycol structure” (EJNMMI Radiopharmacy and Chemistry, 2024).

Test: Lipophilicity (log D7.4), 1-octanol/PBS pH 7.4
Assay type: physicochemical
Protocol: [^125I]I-NpG-D-PSMA (3.7 kBq) was mixed with equal amounts (3.0 mL) of 1-octanol and PBS buffer (pH 7.4). The mixture was vortexed for 1 min and allowed to stand for 1 min. After repeating the procedure five times, the mixture was centrifuged at 1,500 g (3740, Kubota, Tokyo) for 10 min. Samples (0.2-2 mL) were taken from each phase and their radioactivity was measured with an auto-well γ-counter. The partition coefficient was determined by calculating the ratio of the counts per minute in the 1-octanol phase to that in the buffer phase and expressed as common logarithm. The results represent the mean of three measurements.

logD: -3.14 ± 0.03
SMILES: O=C(O)CCC(NC(=O)NC(CCCCNC(=O)C(Cc1ccc2ccccc2c1)NC(=O)C(CCC(=O)O)NC(=O)C(CCC(=O)O)NC(=O)COCC(CO)(CO)C[125I])C(=O)O)C(=O)O [[^125I]I-NpG-D-PSMA]
